Measurements reported in patent US20240400553A1, “AMINE BASED MATRIPTASE 2 INHIBITORS AND USES THEREOF” (Disc Medicine, Inc., priority 2023, published 2024).

Biological target: T1, Human Recombinant Matriptase 2 (Homo sapiens, UniProt Q8IU80)
T1 construct: made in house
T1 sequence (Q8IU80 1-811): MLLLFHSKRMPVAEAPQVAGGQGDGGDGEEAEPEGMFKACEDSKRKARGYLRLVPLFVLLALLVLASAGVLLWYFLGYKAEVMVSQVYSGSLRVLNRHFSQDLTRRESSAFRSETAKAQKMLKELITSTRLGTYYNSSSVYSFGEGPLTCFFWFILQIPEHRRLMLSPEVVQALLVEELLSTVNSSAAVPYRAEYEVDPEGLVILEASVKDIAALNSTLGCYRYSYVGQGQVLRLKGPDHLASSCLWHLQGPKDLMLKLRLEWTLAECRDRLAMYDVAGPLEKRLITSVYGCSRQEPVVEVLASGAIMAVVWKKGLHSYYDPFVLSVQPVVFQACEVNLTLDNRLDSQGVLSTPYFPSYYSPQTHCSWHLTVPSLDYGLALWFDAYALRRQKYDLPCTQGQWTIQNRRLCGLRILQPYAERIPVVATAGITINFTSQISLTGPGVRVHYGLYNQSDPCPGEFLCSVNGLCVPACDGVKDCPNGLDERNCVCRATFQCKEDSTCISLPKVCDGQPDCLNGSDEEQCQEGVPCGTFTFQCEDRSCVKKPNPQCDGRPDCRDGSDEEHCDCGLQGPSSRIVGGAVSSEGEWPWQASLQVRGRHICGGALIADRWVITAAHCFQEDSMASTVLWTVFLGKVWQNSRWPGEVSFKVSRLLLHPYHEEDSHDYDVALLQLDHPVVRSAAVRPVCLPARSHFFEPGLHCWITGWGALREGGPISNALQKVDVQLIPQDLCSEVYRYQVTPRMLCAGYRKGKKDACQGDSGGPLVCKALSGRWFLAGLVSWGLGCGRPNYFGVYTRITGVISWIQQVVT
Experiment: Matriptase 2 inhibition, fluorescence based assay (Method I)
Assay type: biochemical
Settings: Table A; Ki of Matriptase-2; read-out: Mat-2 Ki
How it was run: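 Fluorogenic readout (Ex 360/Em 480 nm) taken 60 min after adding 62 μM Boc-Gln-Ala-Arg-AMC, following 30-min enzyme–compound preincubation at 25 °C. Conditions: 3.5 nM in-house enzyme, pH 7.5 Tris/NaCl/gelatin buffer, 1% DMSO; percent inhibition versus concentration fitted by variable-slope sigmoidal regression.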

Structure (SMILES)	Ki [nM]
CNCCOC(=O)c1cc2ccc(CN)nc2n1Cc1cc(NS(=O)(=O)Cc2cccs2)cc2ccccc12 [Compound 152, 2-(methylamino)ethyl 6-(aminomethyl)-1-({3-[(thiophen-2-yl)methane-sulfonamido]naphthalen-1-yl}methyl)-1H-pyr-rolo[2,3-b]pyridine-2-carboxylate]	≤ 100
NCc1ccc2cc(C(=O)O)n(Cc3cc(NS(=O)(=O)Cc4cccs4)cc4ccccc34)c2n1 [Compound 153, 6-(aminomethyl)-1-({3-[(thiophen-2-yl)methane-sulfonamido]naphthalen-1-yl}methyl)-1H-pyr-rolo[2,3-b]pyridine-2-carboxylic acid]	≤ 100
CCOC(=O)c1cc2ccc(CN)nc2n1Cc1cc(NS(=O)(=O)Cc2cccs2)cc2ccccc12 [Compound 154, ethyl 6-(aminomethyl)-1-({3-[(thiophen-2-yl)-methanesulfonamido]-naphthalen-1-yl}methyl)-1H-pyrrolo[2,3-b]pyr-idine-2-carboxylate]	100 to 500
Cn1cncc1COC(=O)c1cc2ccc(CN)nc2n1Cc1cc(NS(=O)(=O)Cc2ccsc2)cc2ccccc12 [Compound 155, (1-methyl-1H-imidazol-5-yl)methyl 6-(amino-methyl)-1-({3-[(thiophen-3-yl)methanesulfon-amido]naphthalen-1-yl}-methyl)-1H-pyrrolo[2,3-b]pyridine-2-carboxylate]	≤ 100
NCc1ccc2cc(C(=O)OCCN3CCNCC3)n(Cc3cc(NS(=O)(=O)Cc4ccsc4)cc4ccccc34)c2n1 [Compound 156, 2-(piperazin-1-yl)ethyl 6-(aminomethyl)-1-({3-[(thiophen-3-yl)methane-sulfonamidoJnaphthalen-1-yl}methyl)-1H-pyr-rolo[2,3-b]pyridine-2-carboxylate]	≤ 100
Cn1ccnc1COC(=O)c1cc2ccc(CN)nc2n1Cc1cc(NS(=O)(=O)Cc2ccsc2)cc2ccccc12 [Compound 157, (1-methyl-1H-imidazol-2-yl)methyl 6-amino-methyl)-1-({3-[(thio-phen-3-yl)methanesul-fonamido]naphthalen-1-yl}methyl)-1H-pyrrolo-[2,3-b]pyridine-2-car-boxylate]	≤ 100
NCc1ccc2cc(C(=O)OC[C@H]3COCCN3)n(Cc3cc(NS(=O)(=O)Cc4ccsc4)cc4ccccc34)c2n1 [Compound 158, [(3R)-morpholin-3-yl]-methyl 6-(aminometh-yl)-1-({3-[(thiophen-3-yl)methanesulfonamido]-naphthalen-1-yl}meth-yl)-1H-pyrrolo[2,3-b]-pyridine-2-carboxylate]	≤ 100
CC(C)(C)n1cncc1COC(=O)c1cc2ccc(CN)nc2n1Cc1cc(NS(=O)(=O)Cc2ccsc2)cc2ccccc12 [Compound 159, (1-tert-butyl-1H-imid-azol-5-yl)methyl 6-(aminomethyl)-1-({3-[(thiophen-3-yl)methane-sulfonamido]naphthalen-1-yl}methyl)-1H-pyr-rolo[2,3-b]pyridine-2-carboxylate]	≤ 100
NCc1ccc2cc(C(=O)OCCCN3CCOCC3)n(Cc3cc(NS(=O)(=O)Cc4ccsc4)cc4ccccc34)c2n1 [Compound 160, 3-(morpholin-4-yl)prop-yl 6-(aminomethyl)-1-({3-[(thiophen-3-yl)meth-anesulfonamido]naph-thalen-1-yl}methyl)-1H-pyrrolo[2,3-b]pyridine-2-carboxylate]	≤ 100
CN1CCN(CCOC(=O)c2cc3ccc(CN)nc3n2Cc2cc(NS(=O)(=O)Cc3ccsc3)cc3ccccc23)CC1 [Compound 161, 2-(4-methylpiperazin-1-yl)ethyl 6-(aminometh-yl)-1-({3-[(thiophen-3-yl)methanesulfonamido]-naphthalen-1-yl}meth-yl)-1H-pyrrolo[2,3-b]-pyridine-2-carboxylate]	≤ 100
CN1CCC(CCNC(=O)c2cc3ccc(CN)nc3n2Cc2cc(NS(=O)(=O)Cc3ccsc3)cc3ccccc23)CC1 [Compound 162, 6-(aminomethyl)-N-[2-(1-methylpiperidin-4-yl)-ethyl]-1-({3-[(thiophen-3-yl)methanesulfon-amido]naphthalen-1-yl}-methyl)-1H-pyrrolo[2,3-b]pyridine-2-carboxamide]	≤ 100
Cc1cscc1CS(=O)(=O)Nc1cc(Cn2c(C(=O)OCC3CCN(C)CC3)cc3ccc(CN)nc32)c2ccccc2c1 [Compound 163, (1-methylpiperidin-4-yl)-methyl 6-(aminomethyl)-1-({3-[(4-methylthio-phen-3-yl)methanesul-fonamido]naphthalen-1-yl}methyl)-1H-pyrrolo-[2,3-b]pyridine-2-car-boxylate]	≤ 100
NCc1ccc2cc(C(=O)OCC3CCN(C=O)CC3)n(Cc3cc(NS(=O)(=O)Cc4ccsc4)cc4ccccc34)c2n1 [Compound 164, (1-formylpiperidin-4-yl)methyl 6-(aminometh-yl)-1-({3-[(thiophen-3-yl)methanesulfonamido]-naphthalen-1-yl}methyl)-1H-pyrrolo[2,3-b]pyr-idine-2-carboxylate]	≤ 100
Cn1ccnc1CNC(=O)c1cc2ccc(CN)nc2n1Cc1cc(NS(=O)(=O)Cc2ccsc2)cc2ccccc12 [Compound 165]	≤ 100
COCCN1CCC(COC(=O)c2cc3ccc(CN)nc3n2Cc2cc(NS(=O)(=O)Cc3ccsc3)cc3ccccc23)CC1 [Compound 167, [1-(2-methoxyethyl)-piperidin-4-yl]methyl 6-(aminomethyl)-1-({3-[(thiophen-3-yl)meth-anesulfonamido]naph-thalen-1-yl}methyl)-1H-pyrrolo[2,3-b]pyridine-2-carboxylate]	≤ 100

Other lines, results leading:

Ki [nM]	Structure (SMILES)
≤ 100	NCc1ccc2cc(C(=O)OCCN3CCOCC3)n(Cc3cc(NS(=O)(=O)Cc4ccsc4)cc4ccccc34)c2n1 [Compound 168, 2-(morpholin-4-yl)ethyl 6-(aminomethyl)-1-({3-[(thiophen-3-yl)methane-sulfonamido]naphthalen-1-yl}methyl)-1H-pyr-rolo[2,3-b]pyridine-2-carboxylate]
≤ 100	CN(C)CCOC(=O)c1cc2ccc(CN)nc2n1Cc1cc(NS(=O)(=O)Cc2ccsc2)cc2ccccc12 [Compound 169, 2-(dimethylamino)ethyl 6-(aminomethyl)-1-({3-[(thiophen-3-yl)methane-sulfonamido]naphthalen-1-yl}methyl)-1H-pyr-rolo[2,3-b]pyridine-2-carboxylate]
≤ 100	NCc1ccc2cc(C(=O)OC[C@H]3CNCCO3)n(Cc3cc(NS(=O)(=O)Cc4ccsc4)cc4ccccc34)c2n1 [Compound 170, [(2R)-morpholin-2-yl]-methyl 6-(aminomethyl)-1-({3-[(thiophen-3-yl)-methanesulfonamido]-naphthalen-1-yl}meth-yl)-1H-pyrrolo[2,3-b]-pyridine-2-carboxylate]
≤ 100	CC(=O)N(C)CCOC(=O)c1cc2ccc(CN)nc2n1Cc1cc(NS(=O)(=O)Cc2ccsc2)cc2ccccc12 [Compound 171, 2-(N-methylacetamido)-ethyl 6-(aminomethyl)-1-({3-[(thiophen-3-yl)-methanesulfonamido]-naphthalen-1-yl}meth-yl)-1H-pyrrolo[2,3-b]-pyridine-2-carboxylate]
≤ 100	NCc1ccc2cc(C(=O)NCCN3CCOCC3)n(Cc3cc(NS(=O)(=O)Cc4ccsc4)cc4ccccc34)c2n1 [Compound 173, 6-(aminomethyl)-N-[2-(morpholin-4-yl)ethyl]-1-({3-[(thiophen-3-yl)-methanesulfonamido]-naphthalen-1-yl}meth-yl)-1H-pyrrolo[2,3-b]-pyridine-2-carboxamide]
≤ 100	CN1CCC(CCOC(=O)c2cc3ccc(CN)nc3n2Cc2cc(NS(=O)(=O)Cc3ccsc3)cc3ccccc23)CC1 [Compound 174]
≤ 100	CNCCOC(=O)c1cc2ccc(CN)nc2n1Cc1cc(NS(=O)(=O)Cc2ccsc2)cc2ccccc12 [Compound 175, 2-(methylamino)ethyl 6-(aminomethyl)-1-({3-[(thiophen-3-yl)methane-sulfonamido]naphthalen-1-yl}methyl)-1H-pyr-rolo[2,3-b]pyridine-2-carboxylate]
≤ 100	NCc1ccc2cc(C(=O)OCC3CCOCC3)n(Cc3cc(NS(=O)(=O)Cc4ccsc4)cc4ccccc34)c2n1 [Compound 176, (oxan-4-yl)methyl 6-(aminomethyl)-1-({3-[(thiophen-3-yl)methane-sulfonamido]naphthalen-1-yl}methyl)-1H-pyr-rolo[2,3-b]pyridine-2-carboxylate]
≤ 100	NCc1ccc2cc(C(=O)OCCN3CCCC3)n(Cc3cc(NS(=O)(=O)Cc4ccsc4)cc4ccccc34)c2n1 [Compound 177, 2-(pyrrolidin-1-yl)ethyl 6-(aminomethyl)-1-({3-[(thiophen-3-yl)methane-sulfonamido]naphthalen-1-yl}methyl)-1H-pyr-rolo[2,3-b]pyridine-2-carboxylate]
